According to US20090062243A1, “Lupane-Type Triterpenoids Modified at 30-Position and Analogues Thereof” (ADVANCED LIFE SCIENCES, INC., priority 2007, published 2009):

Columns and labels:
Format in all cases: cell-based
Daoy = experiment: MTS cell viability assay, Daoy; settings: cells incubated 72 h
Description: (§1) Cells were plated, the evening before treatment, for each treatment on 96-well plates (1×10^4 cells/well) in 100 μL volume per well. Analog solutions were prepared by diluting each test compound in DSMO (10 mM) with the appropriate cell growth media for each individual cell line, or in “Universal Media” if several cell lines were to be assayed in parallel, immediately prior to cell treatment. Universal Media consisted of 5 mL sodium pyruvate (100× liquid stock, MediaTech), 5 mL glucose (100×, 45% liquid stock, MediaTech), 5 mL Penicillin/Streptomycin (100× liquid stock, MediaTech), 10 mL sodium bicarbonate (50× liquid stock, MediaTech), 25 mL Fetal Calf Serum, 1.25 mL insulin (4 mg/mL, Gibco) and […] RPMI media with 2 mM L-glutamine for a total volume of 500 mL.
(§2) Cells were treated by aspirating plating media from each well and adding 80 μL of betulinic acid (control) or each analog solution in serial dilutions to the adherent cells. All treatments were performed in triplicate. Growth media (80 μL) was added to 3 blank wells (no cells) to measure background from the growth media. Growth media alone (no DMSO or test compound) was added to 3 wells containing cells to measure the baseline MTS activity. Vehicle (DMSO) control in serial dilutions, added to cells, was also included to monitor basal toxicity from DMSO. Cells were incubated at 37° C. for 72 h, or 120 h for the OVCAR cell lines. MTS reagent (per 96-well plate) were prepared by combining 2 mL of MTS working solution (Cell Titer AQueous Non-Radioactive Cell Proliferation Assay, Promega, cat#G1112), 100 μL of 0.92 mg/mL phenazine methosulfate/Dulbecco's PBS and 2.1 mL growth media. MTS reagent (40 μL) were added to each well and incubated at 37° C. for 1.5 to 4 h. Plates were gently shaken by hand until solution in each well appeared homogenous. Absorbances at 490 nm were measured on a Wallac Victor II plate reader at multiple time points following the addition of MTS reagent for each plate. Triplicate absorbance (490 nm) measurements were averaged following background (no cell) subtraction for each drug concentration. Percent Cell Viability was calculated for each drug concentration using the following equation:
(§3) {[Absorbance(analog treated)]/[Absorbance(DMSO treated)]}×100%
(§4) Cytotoxicity dose response for the triterpenoid derivatives synthesized in SK-MEL-2 (melanoma), A-375 (melanoma), Daoy (glioblastoma), LN-229 (glioblastoma), OVCAR-3 (ovarian carcinoma), HT-29 (colon carcinoma), MCF-7 (breast carcinoma) cell lines using the standard MTS assay is summarized in Table 1. In Table 1, compounds 22a-d and compounds 23a-c refer to structures 22 and 23 in Scheme 5, respectively. Compounds 24aa-an and 24ba-bq refer to structure 24 in Scheme 6. Compounds 26a-e refer to structure 26 in Scheme 6. Compounds 36a-c refer to structure 36 in Scheme 10.

A-375 (melanoma) = experiment: MTS cell viability assay, A-375
Description: as §1, §2, §3, §4

MCF-7 (breast carcinoma) = experiment: MTS cell viability assay, MCF-7
Description: as §1, §2, §3, §4

LN-229 (glioblastoma) = experiment: MTS cell viability assay, LN-229
Description: as §1, §2, §3, §4

HT-29 (colon carcinoma) = experiment: MTS cell viability assay, HT-29
Description: as §1, §2, §3, §4

SK-MEL-2 (melanoma) = experiment: MTS cell viability assay, SK-MEL-2
Description: as §1, §2, §3, §4

[1] = Homo sapiens, A-375, cells incubated 72 h
[2] = Homo sapiens, MCF7, cells incubated 72 h
[3] = Homo sapiens, LN-229, cells incubated 72 h
[4] = Homo sapiens, HT-29, cells incubated 72 h
[5] = Homo sapiens, SK-MEL-2, cells incubated 72 h

Compound | IC50 (Daoy; Homo sapiens, Daoy) [µM] | IC50 (SK-MEL-2 (melanoma); [5]) [µM] | other results
C=C(CNCCc1ccc(O)cc1)[C@@H]1CC[C@]2(COC3CCCCO3)CC[C@]3(C)[C@H](CC[C@@H]4[C@@]5(C)CCC(=O)C(C)(C)[C@@H]5CC[C@]43C)[C@@H]12 (stereo partly shown) [Compound 22c] | 13 | 7 | IC50 (A-375 (melanoma); [1]): 6 µM; IC50 (MCF-7 (breast carcinoma); [2]): 6 µM; IC50 (LN-229 (glioblastoma); [3]): 8 µM; IC50 (HT-29 (colon carcinoma); [4]): 4 µM
C=C(CO)[C@@H]1CC[C@]2(C(=O)O)CC[C@]3(C)[C@H](CC[C@@H]4[C@@]5(C)CC[C@H](O)C(C)(C)[C@@H]5CC[C@]43C)[C@@H]12 [Compound 19b] | > 45 | > 45 | 
C=C(C(=O)O)[C@@H]1CC[C@]2(COC(C)=O)CC[C@]3(C)[C@H](CC[C@@H]4[C@@]5(C)CCC(=O)C(C)(C)[C@@H]5CC[C@]43C)[C@@H]12 [Compound 13a] | > 45 | > 45 | 
C=C(COC(C)=O)[C@@H]1CC[C@]2(C(=O)O)CC[C@]3(C)[C@H](CC[C@@H]4[C@@]5(C)CCC(=O)C(C)(C)[C@@H]5CC[C@]43C)[C@@H]12 [Compound 17a, 30-O-acetyl betulonic acid] | > 45 | > 45 | 
C=C(CNCCO)[C@@H]1CC[C@]2(COC3CCCCO3)CC[C@]3(C)[C@H](CC[C@@H]4[C@@]5(C)CCC(NCCc6ccc(O)cc6)C(C)(C)[C@@H]5CC[C@]43C)[C@@H]12 (stereo partly shown) [Compound 24be] |  |  | IC50 (Daoy): 0.5 µM; IC50 (A-375 (melanoma); cells incubated 72 h): < 2 µM; IC50 (MCF-7 (breast carcinoma); cells incubated 72 h): 5 µM; IC50 (LN-229 (glioblastoma); cells incubated 72 h): 18 µM; IC50 (HT-29 (colon carcinoma); cells incubated 72 h): < 2 µM; IC50 (SK-MEL-2 (melanoma); cells incubated 72 h): 2 µM
C=C(CNCCO)[C@@H]1CC[C@]2(COC3CCCCO3)CC[C@]3(C)[C@H](CC[C@@H]4[C@@]5(C)CCC(NC6CCC(O)CC6)C(C)(C)[C@@H]5CC[C@]43C)[C@@H]12 (stereo partly shown) [Compound 24bi] |  |  | IC50 (Daoy): 5 µM; IC50 (SK-MEL-2 (melanoma); cells incubated 72 h): 5 µM
C=C(CNCCO)[C@@H]1CC[C@]2(CO)CC[C@]3(C)[C@H](CC[C@@H]4[C@@]5(C)CCC(O)C(C)(C)[C@@H]5CC[C@]43C)[C@@H]12 (stereo partly shown) [Compound 23b] | 35 | 15 | 
C=C(CNCCO)[C@@H]1CC[C@]2(COC3CCCCO3)CC[C@]3(C)[C@H](CC[C@@H]4[C@@]5(C)CCC(NCC(=O)OC)C(C)(C)[C@@H]5CC[C@]43C)[C@@H]12 (stereo partly shown) [Compound 24bd] |  |  | IC50 (Daoy): 16 µM; IC50 (SK-MEL-2 (melanoma); cells incubated 72 h): 16 µM
C=C(CO)[C@@H]1CC[C@]2(COC(C)=O)CC[C@]3(C)[C@H](CC[C@@H]4[C@@]5(C)CCC(=O)C(C)(C)[C@@H]5CC[C@]43C)[C@@H]12 [Compound 12] | > 45 | > 45 | 
C=C(COC(C)=O)[C@@H]1CC[C@]2(CO)CC[C@]3(C)[C@H](CC[C@@H]4[C@@]5(C)CCC(=O)C(C)(C)[C@@H]5CC[C@]43C)[C@@H]12 [Compound 16] | > 45 | 43 | 
C=C(CNCCO)[C@@H]1CC[C@]2(COC3CCCCO3)CC[C@]3(C)[C@H](CC[C@@H]4[C@@]5(C)CCC(NCCO)C(C)(C)[C@@H]5CC[C@]43C)[C@@H]12 (stereo partly shown) [Compound 24bg] |  |  | IC50 (Daoy): 5 µM; IC50 (A-375 (melanoma); cells incubated 72 h): < 2 µM; IC50 (MCF-7 (breast carcinoma); cells incubated 72 h): 4 µM; IC50 (LN-229 (glioblastoma); cells incubated 72 h): 18 µM; IC50 (HT-29 (colon carcinoma); cells incubated 72 h): 3 µM; IC50 (SK-MEL-2 (melanoma); cells incubated 72 h): 5 µM
C=C(CNCCO)[C@@H]1CC[C@]2(COC3CCCCO3)CC[C@]3(C)[C@H](CC[C@@H]4[C@@]5(C)CCC(=O)C(C)(C)[C@@H]5CC[C@]43C)[C@@H]12 (stereo partly shown) [Compound 22a] | 21 | 17 | 
C=C(CNCCO)[C@@H]1CC[C@]2(CO)CC[C@]3(C)[C@H](CC[C@@H]4[C@@]5(C)CCC(NCCc6ccc(O)cc6)C(C)(C)[C@@H]5CC[C@]43C)[C@@H]12 (stereo partly shown) [Compound 24bf] |  |  | IC50 (Daoy): 1 µM; IC50 (A-375 (melanoma); cells incubated 72 h): 2 µM; IC50 (MCF-7 (breast carcinoma); cells incubated 72 h): 4 µM; IC50 (LN-229 (glioblastoma); cells incubated 72 h): 14 µM; IC50 (HT-29 (colon carcinoma); cells incubated 72 h): < 2 µM; IC50 (SK-MEL-2 (melanoma); cells incubated 72 h): 5 µM
C=C(C(=O)O)[C@@H]1CC[C@]2(C(=O)O)CC[C@]3(C)[C@H](CC[C@@H]4[C@@]5(C)CCC(=O)C(C)(C)[C@@H]5CC[C@]43C)[C@@H]12 [Compound 11] | > 75 | > 75 | 
C=C(CNCCO)[C@@H]1CC[C@]2(CO)CC[C@]3(C)[C@H](CC[C@@H]4[C@@]5(C)CCC(N)C(C)(C)[C@@H]5CC[C@]43C)[C@@H]12 (stereo partly shown) [Compound 24bb] | 5 | 6 | IC50 (A-375 (melanoma); [1]): 5 µM; IC50 (MCF-7 (breast carcinoma); [2]): 2 µM; IC50 (LN-229 (glioblastoma); [3]): 12 µM; IC50 (HT-29 (colon carcinoma); [4]): < 2 µM
C=C(CO)[C@@H]1CC[C@]2(C=O)CC[C@]3(C)[C@H](CC[C@@H]4[C@@]5(C)CCC(=O)C(C)(C)[C@@H]5CC[C@]43C)[C@@H]12 [Compound 18b] | > 75 | > 75 | 
C=C(C(=O)O)[C@@H]1CC[C@]2(CO)CC[C@]3(C)[C@H](CC[C@@H]4[C@@]5(C)CC[C@H](O)C(C)(C)[C@@H]5CC[C@]43C)[C@@H]12 [Compound 15] | > 75 | > 75 | 
C=C(CNCCc1ccc(O)cc1)[C@@H]1CC[C@]2(COC3CCCCO3)CC[C@]3(C)[C@H](CC[C@@H]4[C@@]5(C)CCC(N)C(C)(C)[C@@H]5CC[C@]43C)[C@@H]12 (stereo partly shown) [Compound 24bn] | 2 | 5 | 
C=C(CO)[C@@H]1CC[C@]2(C(=O)O)CC[C@]3(C)[C@H](CC[C@@H]4[C@@]5(C)CCC(=O)C(C)(C)[C@@H]5CC[C@]43C)[C@@H]12 [Compound 17b] | > 45 | > 45 | 
C=C(COC(C)=O)[C@@H]1CC[C@]2(C(=O)O)CC[C@]3(C)[C@H](CC[C@@H]4[C@@]5(C)CC[C@H](O)C(C)(C)[C@@H]5CC[C@]43C)[C@@H]12 [Compound 19a] | > 45 | > 45 | 
C=C(COC(C)=O)[C@@H]1CC[C@]2(C=O)CC[C@]3(C)[C@H](CC[C@@H]4[C@@]5(C)CCC(=O)C(C)(C)[C@@H]5CC[C@]43C)[C@@H]12 [Compound 18a] | > 45 | > 45 | 
C=C(CNCCO)[C@@H]1CC[C@]2(COC3CCCCO3)CC[C@]3(C)[C@H](CC[C@@H]4[C@@]5(C)CCC(O)C(C)(C)[C@@H]5CC[C@]43C)[C@@H]12 (stereo partly shown) [Compound 23a] | 54 | 16 | 
C=C(CO)[C@@H]1CC[C@]2(CO)CC[C@]3(C)[C@H](CC[C@@H]4[C@@]5(C)CC[C@H](O)C(C)(C)[C@@H]5CC[C@]43C)[C@@H]12 [Compound 8a] | > 75 | > 75 | 
C=C(C(=O)O)[C@@H]1CC[C@]2(CO)CC[C@]3(C)[C@H](CC[C@@H]4[C@@]5(C)CCC(=O)C(C)(C)[C@@H]5CC[C@]43C)[C@@H]12 [Compound 13b] | > 75 | > 75 | 
CC(CNCCO)[C@@H]1CC[C@]2(CO)CC[C@]3(C)[C@H](CC[C@@H]4[C@@]5(C)CCC(O)C(C)(C)[C@@H]5CC[C@]43C)[C@@H]12 (stereo partly shown) [Compound 36b] | 54 | 16 | 
C=C(C=O)[C@@H]1CC[C@]2(C=O)CC[C@]3(C)[C@H](CC[C@@H]4[C@@]5(C)CCC(=O)C(C)(C)[C@@H]5CC[C@]43C)[C@@H]12 [Compound 20] | 34 |  | 
C=C(CO)[C@@H]1CC[C@]2(COC3CCCCO3)CC[C@]3(C)[C@H](CC[C@@H]4[C@@]5(C)CCC(NC6CCC(O)CC6)C(C)(C)[C@@H]5CC[C@]43C)[C@@H]12 (stereo partly shown) [Compound 24ak] |  |  | IC50 (Daoy): 38 µM; IC50 (SK-MEL-2 (melanoma); cells incubated 72 h): 38 µM
